Earlier results, collected in patent US20100120075A1, “Composition and a method for suppressing the luminescence intensity decline in a luciferin-luciferase reaction” (priority 2008, published 2010).

Tested on: Gaussia luciferase

Row | deactivation of the luciferase | suppression of reaction time-dependent decline in luminescent intensity | Compound
1 | deactivated the luciferase | did not suppress the decline | CCCCCCCCCCCCOS(=O)(=O)[O-].[Na+] [sodium dodecyl sulfate]
2 | – | suppressed | nonyl phenoxylpolyethoxylethanol [NP-40]

Row | Compound | deactivation of the luciferase | suppression of reaction time-dependent decline in luminescent intensity
3 | polyoxyethylene octyl phenyl ether [Triton X-100] | – | suppressed
